Test results from patent US11993640B2, “Treating inflammatory lung disease” (United States Government as represented by the Department …, priority 2019, dated 2024).
Non-standard residues stand in square brackets, D forms with d. Residues, ends and D or L forms follow the SMILES beside them. *: point of attachment. Phenylacetyl(2,3,4,5,6-F5) = O=C(Cc1c(F)c(F)c(F)c(F)c1F)*; Phe(F5) = N[C@@H](Cc1c(F)c(F)c(F)c(F)c1F)C(=O)O; Phe(4-Cl) = N[C@@H](Cc1ccc(Cl)cc1)C(=O)O; hArg = N=C(N)NCCCC[C@H](N)C(=O)O; 12Ado = NCCCCCCCCCCCC(=O)O; Nle = CCCC[C@H](N)C(=O)O; Orn = NCCC[C@H](N)C(=O)O; Abu = CC[C@H](N)C(=O)O; PhAc = O=C(Cc1ccccc1)*

How the values were obtained:
PANC-1 cells = experiment: In vitro cell viability, pancreatic cancer PANC-1; format: cell-based, human; details: 5 μM, 72 h; relative to MIA602 = 1; Table 3A
Method: (§1) The inhibitory effects of the various synthesized GHRH antagonists were tested in cell proliferation assays in various human cancer cell lines including stomach cancer (KATOIII, N87), colon cancer (HT-29), urothelial cancer (J82, RT4), pancreatic cancer (PANC-1, CFPAC-1), prostatic cancer (PC3), breast cancer (MX-1, HCC1806), ovarian cancer (SK-OV-3, OVCAR-3) and lung cancer (HCC827, H460).
(§2) Cell culture. Human cancer cell lines including pancreatic (PANC-1 and CFPAC-1), lung (HCC827 and H460), stomach (NCI-N87 and KATOIII), urothelial (J82, RT4), prostatic (PC3), breast (MX-1 and HCC 1806), colorectal (HT-29), and ovarian (SK-OV-3 and OVCAR-3) were obtained from the American Type Culture Collection (ATCC) and cultured at 37° C. in a humidified 95% air/5% CO2 atmosphere in the medium recommended by ATCC.
(§3) In vitro cell viability. Cell viability was analyzed as follows: cancer cells including pancreatic (PANC-1 and CFPAC-1), lung (HCC827 and H460), stomach (NCI-N87 and KATOIII), urothelial (J82, RT4), prostatic (PC3) and breast (MX-1 and HCC 1806), colorectal (HT-29) and ovarian (SK-OV-3 and OVCAR-3) were grown on 96 well plates to ˜60% confluence, the cells were starved for 24 h in culture medium containing 0.5% FBS. Cells were then treated with GHRH antagonists MIA602 AVR compounds at concentrations of 1, 2.5 or 5 μM, or vehicle (0.1% DMSO) in quintuplicates for 72 hours. The medium was replaced every 48 hours. Cell viability was measured using CellTiter 96 aqueous one solution kit (Promega). Inhibitory effects of tested AVR compounds in comparison to that of MIA602 are presented as inhibitory potency.
(§4) Inhibitory effects of selected AVR compounds in comparison to that of MIA602 are presented as inhibitory potency (e.g., percentage of inhibition). […] The cell lines tested including lung cancer HCC827 (FIG. 2A), pancreatic cancer CFPAC-1 (FIG. 2B), stomach cancer N87 (FIG. 2C), colon cancer HT-29 (FIG. 2D), breast cancers MX-1 and HCC1806 (FIGS. 2E, F). Based on the results of cell proliferation assay after cancer cells were treated with antagonist at concentration of 5 μM for 72H, the relative inhibitory potency of AVR antagonists in comparison to MIA-602 is summarized in Table 3 A and B. Over 60 AVR compounds were tested in 12 cancer cell lines.

KATOIII cells = experiment: In vitro cell viability, stomach cancer KATOIII; format: cell-based, human; details: 5 μM, 72 h; relative to MIA602 = 1; Table 3A
Method: as §1, §2, §3, §4

PC3 cells = experiment: In vitro cell viability, prostatic cancer PC3; format: cell-based, human; details: 5 μM, 72 h; relative to MIA602 = 1; Table 3A
Method: as §1, §2, §3
Inhibitory effects of selected AVR compounds in comparison to that of MIA602 are presented as inhibitory potency (e.g., percentage of inhibition). […] The cell lines tested including lung cancer HCC827 (FIG. 2A), pancreatic cancer CFPAC-1 (FIG. 2B), stomach cancer N87 (FIG. 2C), colon cancer HT-29 (FIG. 2D), breast cancers MX-1 and HCC1806 (FIGS. 2E, F). […]

HCC1806 cells = experiment: In vitro cell viability, breast cancer HCC1806; format: cell-based, human; details: 5 μM, 72 h; relative to MIA602 = 1; Table 3A
Method: as §1, §2, §3, §4
(§5) Based on the results of cell proliferation assay after cancer cells were treated with antagonist at concentration of 5 µM for 72H, * at concentration of 2 µM for 72 H.

MX-1 cells = experiment: In vitro cell viability, breast cancer MX-1; format: cell-based, human; details: 5 μM, 72 h; relative to MIA602 = 1; Table 3A
Method: as §1, §2, §3, §4, §5

CFPAC-1 cells = experiment: In vitro cell viability, pancreatic cancer CFPAC-1; format: cell-based, human; details: 5 μM, 72 h; relative to MIA602 = 1; Table 3A
Method: as §1, §2, §3, §4, §5

NCI-N87 cells = experiment: In vitro cell viability (CellTiter 96), stomach cancer N87; format: cell-based, human; details: 5 μM, 72 h
Method: as §1, §2, §3, §4, §5

J82 cells = experiment: In vitro cell viability, urothelial cancer J82; format: cell-based, human; details: 5 μM, 72 h; relative to MIA602 = 1; Table 3A
Method: as §1, §2, §3, §4

HCC827 cells = experiment: In vitro cell viability, lung cancer HCC827; format: cell-based, human; details: 5 μM, 72 h; relative to MIA602 = 1; Table 3A
Method: as §1, §2, §3, §4, §5

NCI-N87 xenograft = experiment: Xenograft tumor growth in nude mice, stomach cancer N87; format: in vivo; details: Panel D, 10 weeks, 2 μg/day s.c.
Method: The peptides' activity was compared with GHRH antagonist MIA-602. All statistical analyzses were performed from comparing GHRA antagonists to non-treated tumor (control).
Peptides and chemicals. GHRH antagonists MIA-602 and AVR-GHRH antagonists (see Table 2 above) were synthesized by solid phase methods and purified by HPLC. The peptides were dissolved in DMSO and further diluted in 10% 1, 2-propanediol. The final concentration of peptides was 50 µg/ml in 10% 1, 2-propanediol containing 0.1% of DMSO.
as §2, with “(NCI-N87), prostate” for “(NCI-N87 and KATOIII), urothelial (J82, RT4), prostatic”, “brest” for “breast”, “HCC-1806),” for “HCC 1806),”
Xenograft models of human cancers in nude mice. Female athymic (NCr nu/nu) nude mice, 5-to 6-weeks-old, obtained from the Envigo labs (Tampa, FL), were housed in laminar airflow cabinets under pathogen-free conditions with a 12-h light/12-h dark schedule, and were fed autoclaved standard chow and water. To generate mice with xenografted tumors, tumor xenografts were initiated by subcutaneous (s.c.) injection of […] human cancer cells into female nude mice. After about 4 weeks the resulting tumors were dissected and collected after removing necrosis tissues. The tumors were then cut into particles with size of ˜3 mm3 and transplanted s.c. by trocar needle into experimental animals. When tumors grew to the size of 50-60 mm3 (by volume), […] of 5 μg of GHRH antagonists MIA-602 or AVR-compounds (2-10 μg as indicated), or vehicle solutions (0.1% DMSO in 10% 1, 2-propanediol) respectively. Tumor sizes were measured weekly.
Statistical analysis. One-way ANOVA followed by Bonferroni comparison were performed. Data are expressed as Mean±SEM. To determine statistical significance between animal groups, two-tailed Student's t-test was conducted. Differences were considered significant when p<0.05.
Results. […] FIG. 1A-N represents in vivo inhibition of tumor growth during the treatment with GHRH antagonist MIA-602 and selected AVR antagonists in nude mice xenografted with various human tumors including pancreatic cancer PANC-1 (FIG. 1A) and CFPAC-1 (FIG. 1I); lung cancer HCC827 (FIGS. 1B, C) and H460 (FIG. 1H); stomach cancer N87 (FIGS. 1D-F); colon cancer HT-29 (FIG. 1G); breast cancer MX-1 and HCC-1806 (FIGS. 1J, K); ovarian cancer SK-OV-3 and OVACAR-3 (FIGS. 1L, M) and prostate cancer PC3 (FIG. 1N). See also Table 5.

CCCC[C@H](NC(=O)[C@@H](NC(=O)[C@H](CC(=O)O)NC(=O)[C@H](CCC(N)=O)NC(=O)[C@H](CC(C)C)NC(=O)[C@H](CC(C)C)NC(=O)[C@H](CCCCN)NC(=O)[C@H](CCCNC(=N)N)NC(=O)[C@H](C)NC(=O)[C@H](CO)NC(=O)[C@H](CC(C)C)NC(=O)[C@H](CCC(N)=O)NC(=O)[C@H](CC)NC(=O)[C@H](CC(C)C)NC(=O)[C@@H](NC(=O)[C@H](CCCCN)NC(=O)[C@H](CCCNC(=N)N)NC(=O)[C@H](Cc1ccc(O)cc1)NC(=O)[C@H](CCCNC(=N)N)NC(=O)[C@H](C)NC(=O)[C@@H](NC(=O)[C@H](Cc1ccc(Cl)cc1)NC(=O)[C@@H](NC(=O)[C@H](C)NC(=O)[C@H](CC(=O)O)NC(=O)[C@@H](CCCNC(=N)N)NC(=O)[C@H](Cc1ccc(O)cc1)NC(=O)CCCCCCCCCCCNC(=O)Cc1ccccc1)[C@@H](C)CC)[C@@H](C)O)C(C)C)[C@@H](C)CC)C(=O)N[C@H](CCCNC(=N)N)C(=O)N[C@@H](CCCCNC(=N)N)C(N)=O [AVR-107, PhAC-Ada-Tyr-DArg-Asp-Ala-Ile-Cpa-Thr-Ala-Arg-Tyr-Arg-Lys-Val-Leu-Abu-Gln-Leu-Ser-Ala-Arg-Lys-Leu-Leu-Gln-Asp-Ile-Nle-DArg-Har-NH2] ({PhAc-12Ado}-Y[dR]DAI[Phe(4-Cl)]TARYRKVL[Abu]QLSARKLLQDI[Nle][dR][hArg]-NH2)
Relative inhibitory potency, Pancreatic Panc-1 (PANC-1 cells): 1.160 | Relative inhibitory potency, Stomach KATOIII (KATOIII cells): 1.295 | Relative inhibitory potency, Prostatic PC3 (PC3 cells): 0.800 | Relative inhibitory potency, Breast HCC1806 (HCC1806 cells): 0.950 | Relative inhibitory potency, Breast MX-1 (MX-1 cells): 1.010 | Relative inhibitory potency, Pancreatic CFPAC-1 (CFPAC-1 cells): 1.080

CCCC[C@H](NC(=O)[C@@H](NC(=O)[C@H](CC(=O)O)NC(=O)[C@H](CCC(N)=O)NC(=O)[C@H](CC(C)C)NC(=O)[C@H](CC(C)C)NC(=O)[C@H](CCCN)NC(=O)[C@H](Cc1c[nH]cn1)NC(=O)[C@H](C)NC(=O)[C@H](CO)NC(=O)[C@H](CC(C)C)NC(=O)[C@H](CCC(N)=O)NC(=O)[C@H](CC)NC(=O)[C@H](CC(C)C)NC(=O)[C@@H](NC(=O)[C@H](CCCCN)NC(=O)[C@H](CCCNC(=N)N)NC(=O)[C@H](Cc1c(F)c(F)c(F)c(F)c1F)NC(=O)[C@H](CCCNC(=N)N)NC(=O)[C@H](C)NC(=O)[C@@H](NC(=O)[C@H](Cc1ccc(Cl)cc1)NC(=O)[C@@H](NC(=O)[C@H](C)NC(=O)[C@H](CC(=O)O)NC(=O)[C@@H](CCCNC(=N)N)NC(=O)[C@H](Cc1ccc(O)cc1)NC(=O)CCCCCCCCCCCNC(=O)Cc1ccccc1)[C@@H](C)CC)[C@@H](C)O)C(C)C)[C@@H](C)CC)C(=O)N[C@H](CCCNC(=N)N)C(=O)N[C@@H](CCCCNC(=N)N)C(N)=O [AVR-116, PhAC-Ada-Tyr-DArg-Asp-Ala-Ile-Cpa-Thr-Ala-Arg-5FPhe-Arg-Lys-Val-Leu-Abu-Gln-Leu-Ser-Ala-His-Orn-Leu-Leu-Gln-Asp-Ile-Nle-DArg-Har-NH2] ({PhAc-12Ado}-Y[dR]DAI[Phe(4-Cl)]TAR[Phe(F5)]RKVL[Abu]QLSAH[Orn]LLQDI[Nle][dR][hArg]-NH2)
Relative inhibitory potency, Pancreatic Panc-1 (PANC-1 cells): 1.208 | Relative inhibitory potency, Stomach N87 (NCI-N87 cells; relative to MIA602 = 1, Table 3A): 2.484 | Relative inhibitory potency, Urothelial J82 (J82 cells): 3.034 | Relative inhibitory potency, Stomach KATOIII (KATOIII cells): 1.202 | Relative inhibitory potency, Lung HCC827 (HCC827 cells): 2.470 | Relative inhibitory potency, Pancreatic CFPAC-1 (CFPAC-1 cells): 1.445

CCCC[C@H](NC(=O)[C@@H](NC(=O)[C@H](CC(=O)O)NC(=O)[C@H](CCC(N)=O)NC(=O)[C@H](CC(C)C)NC(=O)[C@H](CC(C)C)NC(=O)[C@H](CCCCN)NC(=O)[C@H](CCCNC(=N)N)NC(=O)[C@H](C)NC(=O)[C@H](CO)NC(=O)[C@H](CC(C)C)NC(=O)[C@H](CCC(N)=O)NC(=O)[C@H](CC)NC(=O)[C@H](CC(C)C)NC(=O)[C@@H](NC(=O)[C@H](CCCCN)NC(=O)[C@H](CCCNC(=N)N)NC(=O)[C@H](Cc1ccc(OC)cc1)NC(=O)[C@H](CCCCNC(=N)N)NC(=O)[C@H](CC(N)=O)NC(=O)[C@@H](NC(=O)[C@H](Cc1ccc(Cl)cc1)NC(=O)[C@@H](NC(=O)[C@H](C)NC(=O)[C@H](CC(=O)O)NC(=O)[C@@H](CCCNC(=N)N)NC(=O)[C@H](Cc1ccc(O)cc1)NC(=O)CCCCCCCCCCCNC(=O)Cc1c(F)c(F)c(F)c(F)c1F)[C@@H](C)CC)[C@@H](C)O)C(C)C)[C@@H](C)CC)C(=O)N[C@H](CCCNC(=N)N)C(=O)N[C@@H](CCCCNC(=N)N)C(=O)NCCCCCCCCCCCC(N)=O [AVR-333, 5FPhAC-Ada-Tyr-DArg-Asp-Ala-Ile-Cpa-Thr-Asn-Har-Tyr(Me)-Arg-Lys-Val-Leu-Abu-Gln-Leu-Ser-Ala-Arg-Lys-Leu-Leu-Gln-Asp-Ile-Nle-DArg-Har-Ada-NH2] ({Phenylacetyl(2,3,4,5,6-F5)-12Ado}-Y[dR]DAI[Phe(4-Cl)]TN[hArg]Y(Me)RKVL[Abu]QLSARKLLQDI[Nle][dR][hArg][12Ado]-NH2)
Tumor Growth % (NCI-N87 xenograft): 454.00% | In vitro relative inhibitory potency in comparison to MIA-602, NCI-N87 (NCI-N87 cells; Table 3B): 1.4
